Test results taken from patent US20240279278A1, “NMU RECEPTOR 2 AGONISTS” (Boehringer Ingelheim International GmbH, priority 2023, published 2024).
In brackets after ≈: the same amount, converted by molar mass. Residues, ends and D or L forms follow the SMILES beside them.

T1: human NMUR1 receptor (Homo sapiens, UniProt Q9HB89)
T1 construct: expressed in transfected cells; host or cells: CHO-K1
T1 sequence (Q9HB89 1-426): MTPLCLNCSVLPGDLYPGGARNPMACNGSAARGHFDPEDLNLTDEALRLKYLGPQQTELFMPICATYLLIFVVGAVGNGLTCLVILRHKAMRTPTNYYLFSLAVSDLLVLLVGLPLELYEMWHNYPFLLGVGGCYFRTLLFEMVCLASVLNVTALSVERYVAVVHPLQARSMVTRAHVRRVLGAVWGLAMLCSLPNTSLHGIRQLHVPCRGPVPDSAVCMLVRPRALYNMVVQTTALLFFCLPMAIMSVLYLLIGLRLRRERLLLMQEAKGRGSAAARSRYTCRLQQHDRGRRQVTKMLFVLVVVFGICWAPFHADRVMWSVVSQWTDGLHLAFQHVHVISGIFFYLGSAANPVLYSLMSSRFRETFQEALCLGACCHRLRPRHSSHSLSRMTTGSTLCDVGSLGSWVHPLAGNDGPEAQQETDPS

T2: human neuromedin U receptor 1 (human, UniProt Q9HB89 24-426)
T2 sequence (looked up): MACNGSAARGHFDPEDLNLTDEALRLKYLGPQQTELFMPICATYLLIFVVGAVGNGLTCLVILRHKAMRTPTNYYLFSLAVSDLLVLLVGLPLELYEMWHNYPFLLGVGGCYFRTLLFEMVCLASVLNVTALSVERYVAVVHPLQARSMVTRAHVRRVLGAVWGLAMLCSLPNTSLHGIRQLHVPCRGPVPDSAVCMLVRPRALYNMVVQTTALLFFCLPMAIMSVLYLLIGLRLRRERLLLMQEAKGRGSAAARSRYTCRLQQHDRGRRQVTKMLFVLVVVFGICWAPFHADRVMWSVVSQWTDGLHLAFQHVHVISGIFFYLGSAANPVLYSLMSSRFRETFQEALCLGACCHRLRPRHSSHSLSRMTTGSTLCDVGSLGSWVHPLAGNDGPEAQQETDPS

B1: C18DA-gGlu3-Sar9-AEPipAc-Tyr-Phe-NMeLeu-Nle-Dbu-NMeAla-Arg-Gly-NH2 (peptide)
peptide: EEEXXXXXXXXXXYFLXXARG
HELM: PEPTIDE1{[O=C(O)CCCCCCCCCCCCCCCCC(=O)[*:2]].[gGlu].[gGlu].[gGlu].[Sar].[Sar].[Sar].[Sar].[Sar].[Sar].[Sar].[Sar].[Sar].[O=C(CN1CCN(CCN[*:1])CC1)[*:2]].Y.F.[meL].[Nle].[Dab].[meA].R.G.[am]}$$$$V2.0
SMILES: CCCC[C@H](NC(=O)[C@H](CC(C)C)N(C)C(=O)[C@H](Cc1ccccc1)NC(=O)[C@H](Cc1ccc(O)cc1)NC(=O)CN1CCN(CCNC(=O)CN(C)C(=O)CN(C)C(=O)CN(C)C(=O)CN(C)C(=O)CN(C)C(=O)CN(C)C(=O)CN(C)C(=O)CN(C)C(=O)CN(C)C(=O)CC[C@H](NC(=O)CC[C@H](NC(=O)CC[C@H](NC(=O)CCCCCCCCCCCCCCCCC(=O)O)C(=O)O)C(=O)O)C(=O)O)CC1)C(=O)N[C@@H](CCN)C(=O)N(C)[C@@H](C)C(=O)N[C@@H](CCCNC(=N)N)C(=O)NCC(N)=O
B2: C18DA-gGlu3-Sar9-AEPipAc-Tyr-Phe-NMeLeu-Nle-Orn-Pro-Arg-Gly-NH2 (peptide)
peptide: EEEXXXXXXXXXXYFLXXPRG
HELM: PEPTIDE1{[O=C(O)CCCCCCCCCCCCCCCCC(=O)[*:2]].[gGlu].[gGlu].[gGlu].[Sar].[Sar].[Sar].[Sar].[Sar].[Sar].[Sar].[Sar].[Sar].[O=C(CN1CCN(CCN[*:1])CC1)[*:2]].Y.F.[meL].[Nle].[Orn].P.R.G.[am]}$$$$V2.0
SMILES: CCCC[C@H](NC(=O)[C@H](CC(C)C)N(C)C(=O)[C@H](Cc1ccccc1)NC(=O)[C@H](Cc1ccc(O)cc1)NC(=O)CN1CCN(CCNC(=O)CN(C)C(=O)CN(C)C(=O)CN(C)C(=O)CN(C)C(=O)CN(C)C(=O)CN(C)C(=O)CN(C)C(=O)CN(C)C(=O)CN(C)C(=O)CC[C@H](NC(=O)CC[C@H](NC(=O)CC[C@H](NC(=O)CCCCCCCCCCCCCCCCC(=O)O)C(=O)O)C(=O)O)C(=O)O)CC1)C(=O)N[C@@H](CCCN)C(=O)N1CCC[C@H]1C(=O)N[C@@H](CCCNC(=N)N)C(=O)NCC(N)=O
B3: C18DA-gGlu3-Sar12-AEPipAc-Tyr-Phe-NMeLeu-Nle-Dbu-Pro-Arg-Gly-NH2 (peptide)
peptide: EEEXXXXXXXXXXXXXYFLXXPRG
HELM: PEPTIDE1{[O=C(O)CCCCCCCCCCCCCCCCC(=O)[*:2]].[gGlu].[gGlu].[gGlu].[Sar].[Sar].[Sar].[Sar].[Sar].[Sar].[Sar].[Sar].[Sar].[Sar].[Sar].[Sar].[O=C(CN1CCN(CCN[*:1])CC1)[*:2]].Y.F.[meL].[Nle].[Dab].P.R.G.[am]}$$$$V2.0
SMILES: CCCC[C@H](NC(=O)[C@H](CC(C)C)N(C)C(=O)[C@H](Cc1ccccc1)NC(=O)[C@H](Cc1ccc(O)cc1)NC(=O)CN1CCN(CCNC(=O)CN(C)C(=O)CN(C)C(=O)CN(C)C(=O)CN(C)C(=O)CN(C)C(=O)CN(C)C(=O)CN(C)C(=O)CN(C)C(=O)CN(C)C(=O)CN(C)C(=O)CN(C)C(=O)CN(C)C(=O)CC[C@H](NC(=O)CC[C@H](NC(=O)CC[C@H](NC(=O)CCCCCCCCCCCCCCCCC(=O)O)C(=O)O)C(=O)O)C(=O)O)CC1)C(=O)N[C@@H](CCN)C(=O)N1CCC[C@H]1C(=O)N[C@@H](CCCNC(=N)N)C(=O)NCC(N)=O

Experiments:
physchem = format: physicochemical
Method: Example 6: Solubility Determination
Peptides (as TFA-salts) were weighed out in a filter unit (Mini-UniPrep Syringeless Filter 0.45 μm, Whatman PVDF), and 0.1 M phosphate buffer at pH 6 to 8 was added to achieve 10 mg/mL final peptide concentration. The peptides were dissolved by shaking the filter units horizontally at 350 rpm for 2 hours at room temperature. Samples were then filtered to remove any insoluble particles. Controls were prepared by weighing out the corresponding peptide solid material and dissolving it in an appropriate vehicle (e.g. buffer or DMSO) to a final concentration of 1 mg/mL. Both, the control and sample were analyzed by reversed phase chromatography. The area under the peak of the sample was compared to the control and the solubility was calculated based on that ratio. The pH was measured and recorded for each sample.

human NMUR2 receptor [1] = biological target: T3, human NMUR2 receptor (Homo sapiens, UniProt Q9GZQ4); experiment: IP1 Gq HTRF assay, activation of human NMUR2 in human plasma; format: cell-based; set-up: expressed in transfected cells; host or cells: CHO-K1; details: CHO-K1 cells expressing human NMUR2, 100% human plasma; read-out: EC50 (hNMUR2) human plasma
T3 sequence (Q9GZQ4 whole entry): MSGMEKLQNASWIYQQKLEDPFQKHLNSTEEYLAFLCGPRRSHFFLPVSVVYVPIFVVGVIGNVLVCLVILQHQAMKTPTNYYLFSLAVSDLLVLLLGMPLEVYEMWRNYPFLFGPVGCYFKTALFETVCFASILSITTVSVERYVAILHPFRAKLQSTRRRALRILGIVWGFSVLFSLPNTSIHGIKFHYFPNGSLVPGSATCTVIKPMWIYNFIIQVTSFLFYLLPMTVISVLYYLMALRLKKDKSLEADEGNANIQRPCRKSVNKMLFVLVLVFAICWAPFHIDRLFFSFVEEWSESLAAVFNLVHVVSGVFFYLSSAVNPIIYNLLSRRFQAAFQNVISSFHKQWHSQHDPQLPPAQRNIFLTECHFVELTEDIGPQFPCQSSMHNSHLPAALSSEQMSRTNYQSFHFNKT
In short: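 EC50 obtained via 4-parameter sigmoidal regression of HTRF IP-One signal (665 nm/620 nm), which falls as intracellular IP1 rises. Stimulation: 1 h, 37° C, peptides in human plasma plus 50 mM LiCl, 1% DMSO final, on NMUR2-expressing CHO-K1 cells, 8 concentrations.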

human NMUR2 receptor [2] = biological target: T3, human NMUR2 receptor; experiment: IP1 Gq HTRF assay, activation of human NMUR2 in buffer; format: cell-based; set-up: expressed in transfected cells; host or cells: CHO-K1; details: CHO-K1 cells expressing human NMUR2, stimulation buffer with 0.1% BSA; read-out: EC50 (hNMUR2) buffer
In short: (§1)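 IP-One HTRF competition (665/620 nm ratio) read after 1 h agonist exposure at 37 °C in pH 7.4 HEPES/HBSS stimulation buffer containing 50 mM LiCl, 0.1% BSA, 1% DMSO. Cells: CHO-K1 stably expressing human NMUR2 or NMUR1. EC50 by 4-parameter nonlinear regression of 8-point curves.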

human NMUR1 receptor = biological target: T1, human NMUR1 receptor; experiment: IP1 Gq HTRF assay, activation of human NMUR1 in buffer; format: cell-based; details: CHO-K1 cells expressing human NMUR1, stimulation buffer with 0.1% BSA; read-out: EC50 (hNMUR1) buffer
In short: as §1

[3] = biological target: T2, human neuromedin U receptor 1; experiment: cell-based or functional assay

Molecule | solubility at 2 h (physchem; pH 7.6) [µg/mL] | EC50 (human NMUR2 receptor [1]) [nM] | EC50 (human NMUR2 receptor [2]) [nM] | solubility at 2 h (physchem; pH 7.2) [µg/mL] | EC50 (human NMUR1 receptor) [nM] | EC50 (hNMUR1) buffer [3] [nM]
CCCC[C@H](NC(=O)[C@H](CC(C)C)N(C)C(=O)[C@H](Cc1ccccc1)NC(=O)[C@H](Cc1ccc(O)cc1)NC(=O)CN1CCN(CCNC(=O)CN(C)C(=O)CN(C)C(=O)CN(C)C(=O)CN(C)C(=O)CN(C)C(=O)CN(C)C(=O)CC[C@H](NC(=O)CC[C@H](NC(=O)CC[C@H](NC(=O)CCCCCCCCCCCCCCCCC(=O)O)C(=O)O)C(=O)O)C(=O)O)CC1)C(=O)N[C@@H](CCCNC(=N)N)C(=O)N1CCC[C@H]1C(=O)N[C@@H](CCCNC(=N)N)C(=O)NCC(N)=O [Compound 68, C18DA-gGlu3-Sar6-AEPipAc-Tyr-Phe-NMeLeu-Nle-Arg-Pro-Arg-Gly-NH2] (HELM PEPTIDE1{[O=C(O)CCCCCCCCCCCCCCCCC(=O)[*:2]].[gGlu].[gGlu].[gGlu].[Sar].[Sar].[Sar].[Sar].[Sar].[Sar].[O=C(CN1CCN(CCN[*:1])CC1)[*:2]].Y.F.[meL].[Nle].R.P.R.G.[am]}$$$$V2.0) | 900 (≈ 0.389 mM) | 9.6 | 1.2 |  |  | 
CCCC[C@H](NC(=O)[C@H](CC(C)C)N(C)C(=O)[C@H](Cc1ccccc1)NC(=O)[C@H](Cc1ccc(O)cc1)NC(=O)CN1CCN(CCNC(=O)CN(C)C(=O)CN(C)C(=O)CN(C)C(=O)CN(C)C(=O)CN(C)C(=O)CN(C)C(=O)CN(C)C(=O)CN(C)C(=O)CN(C)C(=O)CC[C@H](NC(=O)CC[C@H](NC(=O)CC[C@H](NC(=O)CCCCCCCCCCCCCCCCC(=O)O)C(=O)O)C(=O)O)C(=O)O)CC1)C(=O)N[C@@H](CCCN)C(=O)N(C)[C@@H](C)C(=O)N[C@@H](CCCNC(=N)N)C(=O)NCC(N)=O [Compound 70, C18DA-gGlu3-Sar9-AEPipAc-Tyr-Phe-NMeLeu-Nle-Orn-NMeAla-Arg-Gly-NH2] (HELM PEPTIDE1{[O=C(O)CCCCCCCCCCCCCCCCC(=O)[*:2]].[gGlu].[gGlu].[gGlu].[Sar].[Sar].[Sar].[Sar].[Sar].[Sar].[Sar].[Sar].[Sar].[O=C(CN1CCN(CCN[*:1])CC1)[*:2]].Y.F.[meL].[Nle].[Orn].[meA].R.G.[am]}$$$$V2.0) |  | 27.2 | 2.5 | 8300 (≈ 3.36 mM) | > 1000 | 
CCCC[C@H](NC(=O)[C@H](CC(C)C)N(C)C(=O)[C@H](Cc1ccccc1)NC(=O)[C@H](Cc1ccc(O)cc1)NC(=O)CN1CCN(CCNC(=O)CN(C)C(=O)CN(C)C(=O)CN(C)C(=O)CN(C)C(=O)CN(C)C(=O)CN(C)C(=O)CN(C)C(=O)CN(C)C(=O)CN(C)C(=O)CC[C@H](NC(=O)CC[C@H](NC(=O)CC[C@H](NC(=O)CCCCCCCCCCCCCCCCC(=O)O)C(=O)O)C(=O)O)C(=O)O)CC1)C(=O)N[C@@H](CCCNC(=N)N)C(=O)N1CCC[C@H]1C(=O)N[C@@H](CCCNC(=N)N)C(=O)NCC(N)=O [Compound 72, C18DA-gGlu3-Sar9-AEPipAc-Tyr-Phe-NMeLeu-Nle-Arg-Pro-Arg-Gly-NH2] (HELM PEPTIDE1{[O=C(O)CCCCCCCCCCCCCCCCC(=O)[*:2]].[gGlu].[gGlu].[gGlu].[Sar].[Sar].[Sar].[Sar].[Sar].[Sar].[Sar].[Sar].[Sar].[O=C(CN1CCN(CCN[*:1])CC1)[*:2]].Y.F.[meL].[Nle].R.P.R.G.[am]}$$$$V2.0) |  | 10.4 | 0.9 | 9600 (≈ 3.8 mM) |  | 
B1 |  |  |  |  |  | > 1000
B2 |  |  |  |  |  | 770
B3 |  |  |  |  |  | 1700
